From article PMC8213057, “Targeting ALK2: An Open Science Approach to Developing Therapeutics for the Treatment of Diffuse Intrinsic Pontine Glioma” (Journal of Medicinal Chemistry, 2020) come the findings set out here.

One assay deals with ZAK/MLTK (Homo sapiens, UniProt Q9NYL2). The assay can be described thus: 375-member kinase panel. The conditions noted are these: Run 1, Run 2; for % enzyme activity: 1 μM; for remaining activity at 1 µM: read-out: % enzyme activity, 1 μM. In kind it is biochemical.
Chain of ZAK/MLTK (Q9NYL2 whole entry): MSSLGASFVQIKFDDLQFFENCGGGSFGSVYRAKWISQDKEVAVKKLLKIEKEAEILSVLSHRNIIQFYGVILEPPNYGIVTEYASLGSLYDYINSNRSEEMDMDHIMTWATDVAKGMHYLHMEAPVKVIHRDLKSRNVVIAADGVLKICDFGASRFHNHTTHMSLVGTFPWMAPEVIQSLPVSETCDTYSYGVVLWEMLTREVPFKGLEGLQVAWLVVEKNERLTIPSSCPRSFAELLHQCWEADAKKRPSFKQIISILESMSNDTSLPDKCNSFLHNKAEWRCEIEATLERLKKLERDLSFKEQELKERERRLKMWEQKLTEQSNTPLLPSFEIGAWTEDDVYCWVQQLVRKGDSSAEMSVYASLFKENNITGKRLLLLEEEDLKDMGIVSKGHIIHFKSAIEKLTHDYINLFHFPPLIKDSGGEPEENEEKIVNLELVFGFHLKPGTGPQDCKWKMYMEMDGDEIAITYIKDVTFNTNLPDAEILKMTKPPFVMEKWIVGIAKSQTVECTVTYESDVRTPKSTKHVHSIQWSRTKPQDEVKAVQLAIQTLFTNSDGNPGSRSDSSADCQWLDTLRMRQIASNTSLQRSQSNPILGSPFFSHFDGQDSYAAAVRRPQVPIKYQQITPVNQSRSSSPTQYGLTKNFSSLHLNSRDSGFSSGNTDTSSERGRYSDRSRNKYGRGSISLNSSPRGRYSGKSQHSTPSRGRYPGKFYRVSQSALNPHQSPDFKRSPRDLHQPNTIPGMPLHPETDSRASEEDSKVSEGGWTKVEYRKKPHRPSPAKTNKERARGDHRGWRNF
Another assay has as its target CK2a (Homo sapiens, UniProt P68400). The settings on record: 1 μM; Run 1, Run 2.
A further assay has as its target T1, JAK3 (Homo sapiens, UniProt P52333).
T1 sequence (P52333 1-1124): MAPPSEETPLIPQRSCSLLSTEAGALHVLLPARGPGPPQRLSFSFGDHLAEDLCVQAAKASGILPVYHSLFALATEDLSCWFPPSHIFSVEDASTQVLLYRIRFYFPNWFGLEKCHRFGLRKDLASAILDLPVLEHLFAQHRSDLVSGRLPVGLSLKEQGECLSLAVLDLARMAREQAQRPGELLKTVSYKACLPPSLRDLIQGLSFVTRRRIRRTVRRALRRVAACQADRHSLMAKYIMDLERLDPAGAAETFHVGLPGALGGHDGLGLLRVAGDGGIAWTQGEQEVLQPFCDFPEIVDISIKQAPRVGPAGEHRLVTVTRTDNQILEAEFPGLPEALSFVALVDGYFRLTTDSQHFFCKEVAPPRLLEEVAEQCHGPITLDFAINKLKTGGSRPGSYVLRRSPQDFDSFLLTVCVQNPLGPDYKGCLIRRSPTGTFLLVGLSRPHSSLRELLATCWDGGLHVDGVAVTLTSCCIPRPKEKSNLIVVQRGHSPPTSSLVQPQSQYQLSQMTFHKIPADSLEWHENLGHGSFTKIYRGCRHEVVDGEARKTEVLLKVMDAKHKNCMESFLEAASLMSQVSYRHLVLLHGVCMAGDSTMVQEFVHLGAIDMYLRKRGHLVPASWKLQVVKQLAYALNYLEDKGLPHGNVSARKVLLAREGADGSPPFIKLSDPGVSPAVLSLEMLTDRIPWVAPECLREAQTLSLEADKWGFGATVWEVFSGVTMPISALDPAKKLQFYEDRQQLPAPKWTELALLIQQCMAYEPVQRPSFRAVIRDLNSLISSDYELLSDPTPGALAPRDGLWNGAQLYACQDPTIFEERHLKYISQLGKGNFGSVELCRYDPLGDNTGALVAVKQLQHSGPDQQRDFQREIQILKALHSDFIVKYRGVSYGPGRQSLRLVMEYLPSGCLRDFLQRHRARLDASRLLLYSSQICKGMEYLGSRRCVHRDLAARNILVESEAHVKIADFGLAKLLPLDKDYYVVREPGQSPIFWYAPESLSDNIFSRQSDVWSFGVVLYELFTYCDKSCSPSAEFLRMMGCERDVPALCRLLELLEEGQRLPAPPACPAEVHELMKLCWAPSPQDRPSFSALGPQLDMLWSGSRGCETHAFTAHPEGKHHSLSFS
The settings on record: 1 μM; Run 1, Run 2.

A further assay deals with CK1epsilon (Homo sapiens, UniProt P49674). Nature of the assay: biochemical. The conditions noted are these: read-out: % enzyme activity, 1 μM; Run 1, Run 2.
Chain of CK1epsilon (P49674 whole entry): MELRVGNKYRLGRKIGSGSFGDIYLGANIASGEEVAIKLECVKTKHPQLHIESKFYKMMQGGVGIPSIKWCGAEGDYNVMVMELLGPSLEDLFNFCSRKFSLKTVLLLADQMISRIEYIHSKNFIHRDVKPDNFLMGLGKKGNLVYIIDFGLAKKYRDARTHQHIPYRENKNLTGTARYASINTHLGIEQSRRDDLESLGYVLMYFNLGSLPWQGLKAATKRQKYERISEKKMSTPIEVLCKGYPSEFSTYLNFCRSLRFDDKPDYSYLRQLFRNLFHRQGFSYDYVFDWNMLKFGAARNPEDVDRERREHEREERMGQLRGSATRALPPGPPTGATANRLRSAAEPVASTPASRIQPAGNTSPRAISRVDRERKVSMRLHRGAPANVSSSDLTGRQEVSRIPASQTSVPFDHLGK
A further assay addresses T2, DYRK3 (Homo sapiens, UniProt O43781).
T2 sequence (O43781 1-588): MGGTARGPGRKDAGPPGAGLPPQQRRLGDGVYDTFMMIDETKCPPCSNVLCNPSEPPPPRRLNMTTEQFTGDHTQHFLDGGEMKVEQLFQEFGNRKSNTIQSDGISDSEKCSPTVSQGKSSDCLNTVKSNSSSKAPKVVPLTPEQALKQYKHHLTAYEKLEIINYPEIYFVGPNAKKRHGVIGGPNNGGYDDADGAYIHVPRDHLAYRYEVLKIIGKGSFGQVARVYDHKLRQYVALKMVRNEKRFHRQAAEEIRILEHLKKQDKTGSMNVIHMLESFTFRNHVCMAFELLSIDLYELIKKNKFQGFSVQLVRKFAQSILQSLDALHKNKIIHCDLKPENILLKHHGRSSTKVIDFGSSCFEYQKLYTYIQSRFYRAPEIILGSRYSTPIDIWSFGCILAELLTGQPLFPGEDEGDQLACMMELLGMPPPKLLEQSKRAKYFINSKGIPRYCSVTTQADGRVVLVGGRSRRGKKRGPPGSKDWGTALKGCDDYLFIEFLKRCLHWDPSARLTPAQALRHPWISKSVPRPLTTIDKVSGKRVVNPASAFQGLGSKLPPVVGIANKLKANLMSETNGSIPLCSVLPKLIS
Nature of the assay: biochemical. The settings on record: read-out: % enzyme activity, 1 μM; Run 1, Run 2.

The target in the next assay is KDR/VEGFR2 (Homo sapiens, UniProt P35968). The assay can be described thus: biochemical. The settings on record: read-out: % enzyme activity, 1 μM; Run 1, Run 2.
Chain of KDR/VEGFR2 (P35968 20-1356): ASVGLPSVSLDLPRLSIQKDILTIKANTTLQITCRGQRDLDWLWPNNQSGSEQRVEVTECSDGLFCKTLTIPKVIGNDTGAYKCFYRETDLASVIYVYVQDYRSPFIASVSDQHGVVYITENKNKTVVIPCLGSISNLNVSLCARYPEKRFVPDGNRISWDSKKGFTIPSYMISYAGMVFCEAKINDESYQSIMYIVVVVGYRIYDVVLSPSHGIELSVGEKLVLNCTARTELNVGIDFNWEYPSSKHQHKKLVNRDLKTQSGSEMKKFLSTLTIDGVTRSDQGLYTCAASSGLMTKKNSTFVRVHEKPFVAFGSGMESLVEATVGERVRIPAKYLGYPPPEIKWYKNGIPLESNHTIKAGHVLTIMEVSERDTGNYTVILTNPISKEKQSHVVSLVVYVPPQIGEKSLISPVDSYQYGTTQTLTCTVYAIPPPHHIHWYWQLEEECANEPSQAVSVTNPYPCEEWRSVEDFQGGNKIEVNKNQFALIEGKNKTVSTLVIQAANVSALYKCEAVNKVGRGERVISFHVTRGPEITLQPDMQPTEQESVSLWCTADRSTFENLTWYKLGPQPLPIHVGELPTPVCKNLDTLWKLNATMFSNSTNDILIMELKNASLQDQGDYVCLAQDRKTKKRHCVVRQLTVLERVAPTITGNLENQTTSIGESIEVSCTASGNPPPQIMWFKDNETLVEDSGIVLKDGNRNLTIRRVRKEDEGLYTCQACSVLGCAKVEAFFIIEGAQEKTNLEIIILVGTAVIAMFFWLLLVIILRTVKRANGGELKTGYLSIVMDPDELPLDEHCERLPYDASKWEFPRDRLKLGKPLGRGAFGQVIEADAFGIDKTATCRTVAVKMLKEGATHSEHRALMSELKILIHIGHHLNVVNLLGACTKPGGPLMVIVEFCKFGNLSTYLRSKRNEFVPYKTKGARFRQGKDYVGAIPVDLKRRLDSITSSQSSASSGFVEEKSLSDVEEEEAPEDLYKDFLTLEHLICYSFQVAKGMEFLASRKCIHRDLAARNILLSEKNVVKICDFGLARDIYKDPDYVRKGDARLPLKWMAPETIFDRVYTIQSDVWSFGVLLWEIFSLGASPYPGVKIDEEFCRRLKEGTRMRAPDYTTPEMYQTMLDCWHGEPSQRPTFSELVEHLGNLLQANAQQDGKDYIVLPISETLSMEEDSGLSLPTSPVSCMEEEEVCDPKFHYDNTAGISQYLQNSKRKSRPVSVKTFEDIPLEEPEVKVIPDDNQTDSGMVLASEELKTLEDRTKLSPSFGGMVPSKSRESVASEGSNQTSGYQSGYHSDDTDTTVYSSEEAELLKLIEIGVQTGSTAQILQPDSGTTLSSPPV
The target in the next assay is T3, TAK1 (Homo sapiens, UniProt O43318).
T3 sequence (O43318 1-303 limits assumed): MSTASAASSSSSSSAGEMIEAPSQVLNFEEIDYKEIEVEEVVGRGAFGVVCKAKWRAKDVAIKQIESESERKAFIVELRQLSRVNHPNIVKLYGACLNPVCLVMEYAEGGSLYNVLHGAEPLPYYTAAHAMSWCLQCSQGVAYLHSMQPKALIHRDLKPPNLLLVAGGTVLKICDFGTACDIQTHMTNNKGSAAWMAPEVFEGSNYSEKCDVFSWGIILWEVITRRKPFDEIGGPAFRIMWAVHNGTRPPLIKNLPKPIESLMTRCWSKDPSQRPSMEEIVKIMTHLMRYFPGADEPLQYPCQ
The assay can be described thus: biochemical. The settings on record: read-out: % enzyme activity, 1 μM; Run 1, Run 2.

For a further assay, the target named is T4, TEC (Homo sapiens, UniProt P42680).
T4 sequence (P42680 1-631): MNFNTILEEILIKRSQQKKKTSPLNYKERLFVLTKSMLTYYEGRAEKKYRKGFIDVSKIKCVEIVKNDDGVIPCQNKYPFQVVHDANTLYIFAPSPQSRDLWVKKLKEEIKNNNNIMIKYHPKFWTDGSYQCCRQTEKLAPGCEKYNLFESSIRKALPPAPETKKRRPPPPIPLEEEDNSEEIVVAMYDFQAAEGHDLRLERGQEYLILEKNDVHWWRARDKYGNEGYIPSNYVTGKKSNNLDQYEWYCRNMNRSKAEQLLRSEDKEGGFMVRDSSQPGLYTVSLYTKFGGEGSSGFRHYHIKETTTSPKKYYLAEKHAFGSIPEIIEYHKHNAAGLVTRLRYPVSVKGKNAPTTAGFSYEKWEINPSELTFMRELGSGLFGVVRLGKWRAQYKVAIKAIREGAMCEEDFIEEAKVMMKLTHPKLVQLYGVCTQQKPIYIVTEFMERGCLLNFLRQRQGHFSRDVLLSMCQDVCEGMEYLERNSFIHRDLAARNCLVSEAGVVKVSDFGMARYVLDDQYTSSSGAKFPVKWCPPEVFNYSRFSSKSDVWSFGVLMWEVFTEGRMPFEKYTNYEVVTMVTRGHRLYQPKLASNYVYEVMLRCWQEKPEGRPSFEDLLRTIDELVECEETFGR
Nature of the assay: biochemical. The conditions noted are these: read-out: % enzyme activity, 1 μM; Run 1, Run 2.

Chain of CK2a (P68400 whole entry): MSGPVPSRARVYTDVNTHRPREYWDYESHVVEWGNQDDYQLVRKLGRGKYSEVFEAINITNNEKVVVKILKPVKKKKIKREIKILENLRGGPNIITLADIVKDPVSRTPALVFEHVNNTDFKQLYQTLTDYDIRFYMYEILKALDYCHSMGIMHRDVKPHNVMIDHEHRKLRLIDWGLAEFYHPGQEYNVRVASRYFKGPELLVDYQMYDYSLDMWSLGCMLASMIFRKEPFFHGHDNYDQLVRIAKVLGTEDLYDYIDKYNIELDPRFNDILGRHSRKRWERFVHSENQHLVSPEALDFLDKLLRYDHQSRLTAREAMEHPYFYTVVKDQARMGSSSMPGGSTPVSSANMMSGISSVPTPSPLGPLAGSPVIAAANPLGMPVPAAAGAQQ

Take `COc1cc(-c2cncc(-c3ccc(N4CCN(C)CC4)cc3)c2C)cc(F)c1C(N)=O` [Compound 26a, 2-Fluoro-6-methoxy-4-(4-methyl-5-(4-(4-methylpiperazin-1-yl)phenyl)pyridin-3-yl)benzamide]: the “% enzyme activity” value on ZAK/MLTK came to 30.86%; at CK2a, 91.32%; on JAK3, 102.92%. In addition, the remaining activity at 1 µM at ZAK/MLTK worked out at 31.3%; at CK1epsilon, 93.8%; on DYRK3, 90.4%; at KDR/VEGFR2 it was 95.9%; on TAK1 it was 98.5%; on TEC it was 108%.
As to `COc1cc(-c2cncc(-c3ccc(N4C[C@@H](C)N(C)[C@@H](C)C4)cc3)c2C)cc(F)c1C(N)=O` [Compound 26c, 2-Fluoro-6-methoxy-4-(4-methyl-5-(4-((3R,5S)-3,4,5-trimethylpiperazin-1-yl)phenyl)pyridin-3-yl)benzamide], the “% enzyme activity” value at ZAK/MLTK is 46.59%; at CK2a, 86.32%; at JAK3, 99.31%. Also, the remaining activity at 1 µM was found to be 46.6% on ZAK/MLTK; 94.7% on CK1epsilon; 96% at DYRK3; 88.4% at KDR/VEGFR2; 99.1% on TAK1; 106% at TEC.
